Data on 3 compounds can be found in patent US20230255195A1, “CRYOPRESERVATION METHOD FOR ORGAN-ON-A-CHIP” (MEPSGEN CO., LTD., priority 2020, published 2023).

In this test the test system is three-dimensional organ-on-a-chip (hBMEC, pericytes, astrocytes in hydrogel). Nature of the test: TEER (transepithelial electrical resistance) of organ-on-a-chip after cryopreservation and thawing. Type of test: cell-based, human. Particulars: for TEER value after freezing compared with TEER value before freezing (normalized, before freezing set to 1): substance used as cryoprotectant in the cryopreservation method of Example 2, FIG. 9; for TEER value after freezing compared with TEER value before freezing (normalized): FIG. 10.

Experimental: 10 μl of fibronectin was injected into each of the first channel and the second channel of the organ-on-a-chip of the present invention, and cultured in an incubator for 1 hour. Cell adhesion promoters of the first channel and the second channel were removed, and 10^7 cells/ml of a pericyte solution was injected into the second channel. After culturing for 3 hours in an incubator with the chip inverted, the culture solution in the second channel was removed. After injecting 10^7 cells/ml of a mixture in which astrocytes and hydrogel were mixed in a 1:9 volume ratio into the second channel, they were cultured in an incubator for 30 minutes. The culture solution was injected into the side channel and the first channel, and the well reservoir was filled with the culture solution and cultured for one day, and then 10^7 cells/ml of human brain microvascular endothelial cell (hBMEC) solution was injected into the first channel. After culturing for 1 hour in an incubator, the culture solution in the first channel was replaced and cultured for one day. The culture solution in the first channel and the side channel was replaced, and the side channel was plugged in, and then one side of the inlets of the first channel was connected to a syringe pump, and the other side was connected to a culture solution tank, and perfusion culture was performed at 4 dynes/cm^2 for 24 hours.
All of the culture solution in the well reservoir was removed from the organ-on-a-chip of Example 1 above, and the first channel and the side channel were washed with the culture solution. The side channel was washed twice with the cryopreservation solution (50% culture solution, 40% FBS, 10% DMSO) at 4 to 10° C. The culture solution in both inlets of the first channel was removed, and 30 μl of the cryopreservation solution was put into the inlet, and the cryopreservation solution was flowed by a difference in hydrostatic pressure (1 minute required). The preservation solution in the opposite inlet was removed, and 30 μl of the cryopreservation solution was additionally put into the inlet, and the cryopreservation solution was flowed by a difference in hydrostatic pressure (1 minute required). The chip was placed in a freezing container filled with isopropanol, and stored refrigerated for 15 minutes at 4° C., and then stored in a deep freezer (−80° C.).
The organ-on-a-chip of Example 2 above was taken out of the deep freezer and thawed for 10 minutes by immersing it in a constant temperature water bath (37° C.) so that the bottom was in contact, and then the culture solution in the side channel was replaced twice with a culture solution at 37° C. The preservation solution in both inlets of the first channel was removed, and 30 μl of the culture solution at 37° C. was put into the inlet, and the culture solution was flowed by a difference in hydrostatic pressure (1 minute required). The culture solution in the opposite inlet was removed, and 30 μl of the culture solution at 37° C. was additionally put into the inlet, and the culture solution was flowed by a difference in hydrostatic pressure (1 minute required). The well reservoir was filled with the culture solution at 37° C. and cultured for 24 hours or more.
The TEER value corresponds to a representative index for evaluating the cell-to-cell bonding force and the material permeability rate of the tissue and the like in the tissue function of the three-dimensional organ-on-a-chip.
The TEER value (ohm/cm^2) was calculated as follows, and the TEER value before freezing was set to 1 and compared and evaluated with the TEER value after freezing (normalized).

With `OCC(O)CO` [glycerol], the “TEER value after freezing compared with TEER value before freezing (normalized, before freezing set to 1)” value is on record as “remained the same”.

Turning to `OCCO` [EG, ethylene glycol], the “TEER value after freezing compared with TEER value before freezing (normalized, before freezing set to 1)” value is listed as “lower than the TEER value before freezing”.

`C[S+](C)[O-]` [DMSO, dimethyl sulfoxide]: the “TEER value after freezing compared with TEER value before freezing (normalized, before freezing set to 1)” value is “increased”. Besides, the “TEER value after freezing compared with TEER value before freezing (normalized)” value (DMSO content 3% in preservation solution) was “remained the same”. In addition, the “TEER value after freezing compared with TEER value before freezing (normalized)” value (DMSO content 5% in preservation solution) is recorded as “increased”. Further, where the note is “DMSO content 10% in preservation solution”, the “TEER value after freezing compared with TEER value before freezing (normalized)” value is reported as “increased”.
